Reference: PubChem BioAssay (NCI)
Values joined by “and” are separate entries in the source; they are usually repeats but may differ in a detail not shown here. Equal values may be shown once.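 Test compounds were applied to cells in 96-well plates for 48 hours at 5 doses. GI50 is the concentration that inhibits growth by half. At the TGI there is no net growth.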

Key:
Test in all cases: inhibition of tumour cell growth, NCI panel, 48 h
[1] = test system: HT29 colon
[2] = test system: SF-268 CNS
[3] = test system: A549 NSCLC
[4] = test system: SNB-19 CNS
[5] = test system: IGROV1 ovarian
[6] = test system: OVCAR-5 ovarian
[7] = test system: SK-MEL-28 melanoma
[8] = test system: UO-31 renal
[9] = test system: HOP-92 NSCLC
[10] = test system: NCI-H460 lung

## Cc1cccc(N2C(=O)C3c4[nH]c5ccc(C)cc5c4C4CCC(C(C)(C)C)CC4C3C2=O)c1 (stereo not drawn)
[1]
  TGI: > 100 µM
[2]
  TGI: 34.9 µM
[3]
  TGI: 60.7 µM
[4]
  TGI: > 100 µM
[5]
  TGI: > 100 µM
[6]
  TGI: > 100 µM
[7]
  TGI: > 100 µM
[8]
  TGI: > 100 µM
[9]
  TGI: 57.6 µM
[10]
  TGI: 36.3 µM

## CCCCCCCCCCCCCC[n+]1ccc(C)cc1
[1]
  GI50: 0.356 µM
  TGI: 1.82 µM
[2]
  GI50: 0.447 µM
  TGI: 1.7 µM
[3]
  GI50: 1.53 µM
  TGI: 2.94 µM
[4]
  GI50: 1.46 µM
  TGI: 4.02 µM
[5]
  GI50: 0.349 µM
  TGI: 0.953 µM
[6]
  GI50: 1.14 µM
  TGI: 5.18 µM
[7]
  GI50: 1.44 µM
  TGI: 3.09 µM
[8]
  GI50: 1.38 µM
  TGI: 3.79 µM
[9]
  GI50: 0.577 µM
  TGI: 3.3 µM
[10]
  GI50: 0.994 µM
  TGI: 2.23 µM

## CCCCOP(C)(=O)C(NC(=O)OCC)(C(F)(F)F)C(F)(F)F (stereo not drawn)
[1]
  TGI: > 100 µM
[2]
  TGI: > 100 µM
[3]
  TGI: > 100 µM
[4]
  TGI: > 100 µM
[5]
  TGI: > 100 µM
[6]
  TGI: > 100 µM
[7]
  TGI: > 100 µM
[8]
  TGI: > 100 µM
[9]
  TGI: > 100 µM
[10]
  TGI: > 100 µM

## C=C1C(=O)OC2CC(C)C3C4OC4C(O)C3(C)C(O)C12 (stereo not drawn)
[1]
  TGI: 83.8 µM
[2]
  TGI: 71.7 µM
[3]
  TGI: 121 µM
[4]
  TGI: 102 µM
[5]
  TGI: 52.1 µM
[6]
  TGI: 108 µM
[7]
  TGI: 71.2 µM
[8]
  TGI: 149 µM
[9]
  TGI: 61.9 µM
[10]
  TGI: 62.9 µM

## CSc1nc(N)c2c(-c3ccccc3)c3c(nc2n1)CCCC3
[1]
  TGI: > 100 µM
[3]
  TGI: > 100 µM
[4]
  TGI: > 100 µM
[5]
  TGI: > 100 µM
[6]
  TGI: > 100 µM
[7]
  TGI: > 100 µM
[8]
  TGI: > 100 µM
[10]
  TGI: > 100 µM

## COc1ccc(-c2c(-c3ccccc3)c(C)nc3nc(SC)nc(SC)c23)cc1OC
[1]
  TGI: > 100 µM
[2]
  TGI: > 100 µM
[3]
  TGI: > 100 µM
[4]
  TGI: > 100 µM
[5]
  TGI: > 100 µM
[6]
  TGI: > 100 µM
[7]
  TGI: > 100 µM
[8]
  TGI: > 100 µM
[9]
  TGI: 48.2 µM
[10]
  TGI: 16.2 µM

## Clc1ccc(C[P+](c2ccccc2)(c2ccccc2)c2ccccc2)cc1Cl
[1]
  TGI: 11.9 µM
[2]
  TGI: 11.3 µM
[3]
  TGI: 19.9 µM
[4]
  TGI: 10.6 µM
[5]
  TGI: 14.6 µM
[6]
  TGI: 19.2 µM
[7]
  TGI: 11.4 µM
[9]
  TGI: 6.02 µM
[10]
  TGI: 12.8 µM

## C/C(N=NS(=O)(=O)c1ccc([N+](=O)[O-])cc1)=C1\C=CC=CN1O
[1]
  TGI: > 100 µM
[2]
  TGI: > 100 µM
[3]
  TGI: > 100 µM
[4]
  TGI: > 100 µM
[5]
  TGI: > 100 µM
[6]
  TGI: > 100 µM
[7]
  TGI: > 100 µM
[8]
  TGI: > 100 µM
[9]
  TGI: > 100 µM
[10]
  TGI: > 100 µM

## O=C1/C(=C/c2ccc(O)cc2)COc2ccc(O)c(O)c21
[1]
  GI50: 3.52 µM
  TGI: 16.9 µM
[2]
  GI50: 2.72 µM
  TGI: > 100 µM
[3]
  GI50: 3.6 µM
  TGI: > 100 µM
[4]
  GI50: 3.74 µM
  TGI: > 100 µM
[5]
  GI50: 2.45 µM
  TGI: 7.32 µM
[6]
  GI50: 2.64 µM
  TGI: 7.26 µM
[7]
  GI50: 3.81 µM
  TGI: 64.6 µM
[8]
  GI50: 1.09 µM
  TGI: 2.74 µM
[9]
  GI50: 2.33 µM
  TGI: 7.25 µM
[10]
  GI50: 2.16 µM
  TGI: 4.69 µM

## C/C(=N\O)c1cccc[n+]1Cc1ccccc1
[1]
  TGI: > 100 µM
[2]
  TGI: > 100 µM
[3]
  TGI: > 100 µM
[4]
  TGI: > 100 µM
[5]
  TGI: > 100 µM
[6]
  TGI: > 100 µM
[7]
  TGI: > 100 µM
[8]
  TGI: > 100 µM
[9]
  TGI: > 100 µM
[10]
  TGI: > 100 µM

## CC(C)c1ccccc1SCc1cc(=O)cc(CSc2ccccc2C(C)C)o1
[1]
  TGI: 41.2 µM
[2]
  TGI: 33.4 µM
[3]
  TGI: > 100 µM
[4]
  TGI: > 100 µM
[5]
  TGI: 33.1 µM
[6]
  TGI: 34.7 µM
[7]
  TGI: 57.8 µM
[8]
  TGI: > 100 µM
[9]
  TGI: 36.7 µM
[10]
  TGI: 69.7 µM

## CC12CCC(CC1)C(C)(C)O2
[1]
  TGI: 128 µM
[2]
  TGI: 119 µM
[3]
  GI50: 6.75 µM
  TGI: 79.7 µM
[4]
  GI50: 20.8 µM
  TGI: 103 µM
[5]
  TGI: 86.3 µM
[6]
  TGI: 116 µM
[7]
  TGI: 131 µM
[8]
  TGI: 78.3 µM
[9]
  TGI: 95.2 µM
[10]
  GI50: 1.24 µM
  TGI: 12.3 µM

## O=C(O)/C=C/c1c[nH]c(=O)[nH]c1=O
[1]
  GI50: > 500 µM
  TGI: > 500 µM
[2]
  TGI: > 500 µM
[3]
  TGI: > 500 µM
[4]
  TGI: > 500 µM
[5]
  TGI: > 500 µM
[6]
  GI50: > 500 µM
  TGI: > 500 µM
[7]
  TGI: > 500 µM
[8]
  TGI: > 500 µM
[9]
  GI50: > 500 µM and 76.3 µM
  TGI: > 500 µM
[10]
  TGI: > 500 µM
